Reference: PMC10850954, “HDAC6/aggresome processing pathway importance for inflammasome formation is context-dependent” (The Journal of Biological Chemistry, 2024)

How the values were obtained:
NLRP3 inflammasome = test: IL-1β release in THP-1 cells after nigericin stimulation; type: cell-based, human; settings: dTAG 1 μM
HA-F10-FKBP F36V = biological target: T1, HA-F10-FKBP F36V (Homo sapiens, UniProt P62942, F37V); test: dTAG-induced degradation of DARPin F10-FKBPF36V in THP-1 cells (immunoblot); type: cell-based; settings: F10-FKBPF36V THP-1 cells, within 6 h of dTAG addition
T1 construct: expressed in transfected cells; host or cells: THP-1, lentiviral transduction, single-cell clone

HDAC6 [1] = biological target: T2, HDAC6 (Homo sapiens, UniProt Q9UBN7); parameters: method as in PMID 26471297; settings: BMDMs; cited from earlier work
T2 sequence (Q9UBN7 1-1215): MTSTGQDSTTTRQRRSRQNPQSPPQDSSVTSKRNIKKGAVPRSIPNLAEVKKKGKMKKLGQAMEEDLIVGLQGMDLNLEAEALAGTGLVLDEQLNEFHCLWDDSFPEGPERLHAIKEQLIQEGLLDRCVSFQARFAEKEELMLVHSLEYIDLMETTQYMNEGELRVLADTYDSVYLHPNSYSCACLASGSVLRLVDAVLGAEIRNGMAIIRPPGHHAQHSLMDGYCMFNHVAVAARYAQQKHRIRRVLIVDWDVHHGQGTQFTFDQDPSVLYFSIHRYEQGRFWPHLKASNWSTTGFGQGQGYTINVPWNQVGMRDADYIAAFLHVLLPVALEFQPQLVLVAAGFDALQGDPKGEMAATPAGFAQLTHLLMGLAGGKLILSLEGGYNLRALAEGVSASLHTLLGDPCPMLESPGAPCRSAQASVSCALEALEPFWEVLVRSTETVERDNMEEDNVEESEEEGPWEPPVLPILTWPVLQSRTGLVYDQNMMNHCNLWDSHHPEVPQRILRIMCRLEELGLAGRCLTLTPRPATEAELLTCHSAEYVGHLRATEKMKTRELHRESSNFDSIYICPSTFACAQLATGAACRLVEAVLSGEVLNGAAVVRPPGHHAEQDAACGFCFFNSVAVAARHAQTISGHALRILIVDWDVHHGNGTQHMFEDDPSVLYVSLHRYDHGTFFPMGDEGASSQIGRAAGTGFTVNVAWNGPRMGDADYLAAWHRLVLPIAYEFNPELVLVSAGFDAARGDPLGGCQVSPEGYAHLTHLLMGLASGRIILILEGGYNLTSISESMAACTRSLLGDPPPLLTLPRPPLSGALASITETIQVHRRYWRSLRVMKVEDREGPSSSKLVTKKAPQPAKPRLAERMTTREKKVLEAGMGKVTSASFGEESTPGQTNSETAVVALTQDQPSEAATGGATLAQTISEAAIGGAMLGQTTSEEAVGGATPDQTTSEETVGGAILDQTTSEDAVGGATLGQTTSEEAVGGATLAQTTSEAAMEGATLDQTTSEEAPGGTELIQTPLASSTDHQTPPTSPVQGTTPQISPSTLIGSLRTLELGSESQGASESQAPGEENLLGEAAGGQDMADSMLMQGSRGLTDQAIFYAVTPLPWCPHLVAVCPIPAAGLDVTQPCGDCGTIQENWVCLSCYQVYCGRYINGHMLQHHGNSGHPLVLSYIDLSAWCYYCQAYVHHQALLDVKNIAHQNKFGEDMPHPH

HDAC6 [2] = biological target: T2, HDAC6; parameters: endogenous in cells; method as in PMID 37481141; settings: THP-1 cells; cited from earlier work

T1 sequence (P62942 2-108 F37V limits assumed): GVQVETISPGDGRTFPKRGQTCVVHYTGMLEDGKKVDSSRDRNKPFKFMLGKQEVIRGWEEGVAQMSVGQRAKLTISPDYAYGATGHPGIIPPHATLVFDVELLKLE
T1 sequence (Q96SW2 whole entry, further chain): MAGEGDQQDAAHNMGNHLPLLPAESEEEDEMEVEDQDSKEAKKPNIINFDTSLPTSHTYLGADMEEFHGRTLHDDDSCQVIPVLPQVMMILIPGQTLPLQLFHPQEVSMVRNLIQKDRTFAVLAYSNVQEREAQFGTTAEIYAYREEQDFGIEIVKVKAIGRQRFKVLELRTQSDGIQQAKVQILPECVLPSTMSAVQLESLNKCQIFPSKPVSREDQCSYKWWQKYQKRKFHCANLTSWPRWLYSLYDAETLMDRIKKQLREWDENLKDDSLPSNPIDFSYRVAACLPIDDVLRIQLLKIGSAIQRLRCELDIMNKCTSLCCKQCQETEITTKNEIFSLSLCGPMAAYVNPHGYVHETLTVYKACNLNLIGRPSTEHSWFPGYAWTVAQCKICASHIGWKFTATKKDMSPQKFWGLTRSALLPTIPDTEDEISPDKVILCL

| degradation of DARPin F10 (HA-F10-FKBP F36V) | SMILES | IL-1β release (NLRP3 inflammasome; F10-FKBPF36V THP-1 cells, PMA 0.5 μM, nigericin 15 μM, compared to WT THP-1) | IL-1β release (NLRP3 inflammasome; parental WT THP-1, PMA 0.5 μM 3 h, nigericin 15 μM 3 h, MCC950 10 μM) | mIL-1β level (HDAC6 [1]) | IL-1β release (HDAC6 [2]) |
| --- | --- | --- | --- | --- | --- |
| efficiently degraded | CC[C@H](C(=O)N1CCCC[C@H]1C(=O)O[C@H](CCc1ccc(OC)c(OC)c1)c1ccccc1OCC(=O)NCCCCCCOc1cccc2c1C(=O)N(C1CCC(=O)NC1=O)C2=O)c1cc(OC)c(OC)c(OC)c1 (some centres unmarked) [dTAG] | partial, but significant, recovery | comparable | – | – |
| – | CN1CCc2c(c3ccccc3n2Cc2ccc(C(=O)NO)cc2)C1 [Tubastatin A] | – | – | did not impact the mIL-1β level | reduced IL-1β release |
